{
  "source": "patent US11891387B2",
  "about": "“Monoacylglycerol lipase modulators” (Janssen Pharmaceutica NV, priority 2020, dated 2024)",
  "molecular_target": "human MGL from HeLa cells (Homo sapiens (Human), UniProt Q99685)",
  "sequence (Q99685 whole entry)": "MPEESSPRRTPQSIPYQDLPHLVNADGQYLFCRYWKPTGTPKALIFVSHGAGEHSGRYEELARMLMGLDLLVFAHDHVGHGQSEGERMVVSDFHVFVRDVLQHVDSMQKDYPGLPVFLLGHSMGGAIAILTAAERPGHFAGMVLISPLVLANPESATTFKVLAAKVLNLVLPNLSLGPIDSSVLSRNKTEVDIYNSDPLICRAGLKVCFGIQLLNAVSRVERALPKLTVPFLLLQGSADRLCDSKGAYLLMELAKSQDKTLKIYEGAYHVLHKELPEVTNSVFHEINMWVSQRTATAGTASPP",
  "test": "MGL in vitro activity assay: cleavage of [glycerol-1,3-3H]-oleyl glycerol, activated carbon filtration",
  "type": "biochemical",
  "settings": "300 nM [Glycerol-1,3-3H]-oleyl glycerol, endogenously expressed MGL from HeLa cells, one hour incubation",
  "procedure": "The assay used to measure the in vitro activity of MGL is adapted from the assay used for another serine hydrolase (FAAH) described in Wilson et al., 2003 (A high-throughput-compatible assay for determining the activity of fatty acid amide hydrolase. Wilson S J, Lovenberg T W, Barbier A J. Anal Biochem. 2003 Jul. 15; 318(2):270-5.). The assay consists of combining endogenously expressed MGL from HeLa cells with test compounds, adding [glycerol-1,3-^3H]-oleyl glycerol, incubating for one hour, and then measuring the amount of cleaved [1,3-^3H]-glycerol that passes through an activated carbon filter. The amount of cleaved, tritiated glycerol passing through the carbon filter is proportional to the activity of the MGL enzyme in a particular well/test condition.\nStandard conditions for this assay combine 300 nM [Glycerol-1,3-^3H]-oleyl glycerol with human MGL from HeLa cells and test compounds for one hour, after which the reaction is filtered through activated carbon and tritium is measured in the flow through. The test compound concentration in screening mode is 10 μM, while the highest compound concentration in IC50 assays is determined empirically. MGL is the predominant hydrolase in HeLa cells/cell homogenates.",
  "data": [
    {"compound": "CCn1nc(C(F)(F)F)cc1-c1c2c(nn1C)[C@@H]1CCC[C@H](C2)N1C(=O)c1cccc(C)c1", "note": "[Example 78, ((5R,9S)-3-(1-Ethyl-3-(trifluoromethyl)-1H-pyrazol-5-yl)-2-methyl-4,5,6,7,8,9-hexahydro-2H-5,9-epiminocycloocta[c]pyrazol-10-yl)(m-tolyl)methanone]", "values": [
      {"measurement": "IC50", "value": 160, "unit": "nM"}
    ]},
    {"compound": "C[C@H]1c2nn(C)c(-c3cc(C(F)(F)F)nn3C)c2CCN1C(=O)c1ccnc2c1ccn2CC(F)(F)F", "note": "[Example 12, (S)-(2,7-Dimethyl-3-(1-methyl-3-(trifluoromethyl)-1H-pyrazol-5-yl)-2,4,5,7-tetrahydro-6H-pyrazolo[3,4-c]pyridin-6-yl)(1-(2,2,2-trifluoroethyl)-1H-pyrrolo[2,3-b]pyridin-4-yl)methanone]", "values": [
      {"measurement": "IC50", "value": 100, "unit": "nM"}
    ]},
    {"compound": "COc1cccc(C(=O)N2CCc3c(nn(C)c3-c3c(C)cnn3C)[C@@H]2C)c1C", "note": "[Example 2, (S)-(3-(1,4-Dimethyl-1H-pyrazol-5-yl)-2,7-dimethyl-2,4,5,7-tetrahydro-6H-pyrazolo[3,4-c]pyridin-6-yl)(3-methoxy-2-methylphenyl)methanone]", "values": [
      {"measurement": "IC50", "value": 10000, "unit": "nM"}
    ]},
    {"compound": "Cc1nc2cc(F)ccc2cc1C(=O)N1CCc2c(nn(C)c2-c2cc(C(F)(F)F)nn2C)[C@@H]1C", "note": "[Example 24, (S)-(2,7-Dimethyl-3-(1-methyl-3-(trifluoromethyl)-1H-pyrazol-5-yl)-2,4,5,7-tetrahydro-6H-pyrazolo[3,4-c]pyridin-6-yl)(7-fluoro-2-methylquinolin-3-yl)methanone]", "values": [
      {"measurement": "IC50", "value": 1760, "unit": "nM"}
    ]},
    {"compound": "C[C@H]1c2nn(C)c(-c3cc(C(F)(F)F)nn3C)c2CCN1C(=O)c1cccc2c1OCCC2", "note": "[Example 54, (S)-Chroman-8-yl(2,7-dimethyl-3-(1-methyl-3-(trifluoromethyl)-1H-pyrazol-5-yl)-2,4,5,7-tetrahydro-6H-pyrazolo[3,4-c]pyridin-6-yl)methanone]", "values": [
      {"measurement": "IC50", "value": 16, "unit": "nM"}
    ]},
    {"compound": "C[C@H]1c2nn(C)c(-c3cc(C(F)(F)F)nn3C)c2CCN1C(=O)c1cccc(N2CC3(COC3)C2)c1Cl", "note": "[Example 4, (S)-(2-Chloro-3-(2-oxa-6-azaspiro[3.3]heptan-6-yl)phenyl)(2,7-dimethyl-3-(1-methyl-3-(trifluoromethyl)-1H-pyrazol-5-yl)-2,4,5,7-tetrahydro-6H-pyrazolo[3,4-c]pyridin-6-yl)methanone]", "values": [
      {"measurement": "IC50", "value": 20, "unit": "nM"}
    ]},
    {"compound": "Cn1nc(C(F)(F)F)cc1-c1c2c(nn1C)[C@@H]1CCC[C@H](C2)N1C(=O)c1nn(C)c2ncccc12", "note": "[Example 85, (1-Methyl-1H-pyrazolo[3,4-b]pyridin-3-yl)((5R,9S)-2-methyl-3-(1-methyl-3-(trifluoromethyl)-1H-pyrazol-5-yl)-4,5,6,7,8,9-hexahydro-2H-5,9-epiminocycloocta[c]pyrazol-10-yl)methanone]", "values": [
      {"measurement": "IC50", "value": 64, "unit": "nM"}
    ]},
    {"compound": "COc1cccc(C(=O)N2[C@@H]3CCC[C@H]2c2nn(C)c(-c4cc(C(F)(F)F)n(C)n4)c2C3)c1C", "note": "[Example 79, (3-Methoxy-2-methylphenyl)((5R,9S)-2-methyl-3-(1-methyl-5-(trifluoromethyl)-1H-pyrazol-3-yl)-4,5,6,7,8,9-hexahydro-2H-5,9-epiminocycloocta[c]pyrazol-10-yl)methanone]", "values": [
      {"measurement": "IC50", "value": 16, "unit": "nM"}
    ]},
    {"compound": "COc1cccc(C(=O)N2CCc3c(nn(C)c3-c3c(C(F)(F)F)nn(C)c3C)[C@@H]2C)c1C", "note": "[Example 3, (S)-(3-(1,5-Dimethyl-3-(trifluoromethyl)-1H-pyrazol-4-yl)-2,7-dimethyl-2,4,5,7-tetrahydro-6H-pyrazolo[3,4-c]pyridin-6-yl)(3-methoxy-2-methylphenyl)methanone]", "values": [
      {"measurement": "IC50", "value": 6700, "unit": "nM"}
    ]},
    {"compound": "C[C@H]1c2nn(C)c(-c3cc(C(F)(F)F)nn3C)c2CCN1C(=O)c1cccc2c1ccn2C", "note": "[Example 45, (S)-(2,7-Dimethyl-3-(1-methyl-3-(trifluoromethyl)-1H-pyrazol-5-yl)-2,4,5,7-tetrahydro-6H-pyrazolo[3,4-c]pyridin-6-yl)(1-methyl-1H-indol-4-yl)methanone]", "values": [
      {"measurement": "IC50", "value": 1.1, "unit": "nM"}
    ]},
    {"compound": "C[C@H]1c2nn(C)c(-c3cc(C(F)(F)F)nn3C)c2CCN1C(=O)c1cnc2ncsc2c1", "note": "[Example 123, (S)-(2,7-Dimethyl-3-(1-methyl-3-(trifluoromethyl)-1H-pyrazol-5-yl)-2,4,5,7-tetrahydro-6H-pyrazolo[3,4-c]pyridin-6-yl)(thiazolo[4,5-b]pyridin-6-yl)methanone]", "values": [
      {"measurement": "IC50", "value": 950, "unit": "nM"}
    ]},
    {"compound": "Cc1cc(C(=O)N2CCc3c(nn(C)c3-c3cc(C(F)(F)F)n(C)n3)[C@@H]2C)c2cc(F)ccc2n1", "note": "[Example 132, (S)-(2,7-Dimethyl-3-(1-methyl-5-(trifluoromethyl)-1H-pyrazol-3-yl)-2,4,5,7-tetrahydro-6H-pyrazolo[3,4-c]pyridin-6-yl)(6-fluoro-2-methylquinolin-4-yl)methanone]", "values": [
      {"measurement": "IC50", "value": 27, "unit": "nM"}
    ]},
    {"compound": "Cc1cccc(C(=O)N2[C@@H]3CCC[C@H]2c2nn(C)c(-c4cc(C(F)(F)F)nn4C)c2C3)c1", "note": "(stereo in doubt) [Example 76, ((5R,9S)-2-Methyl-3-(1-methyl-3-(trifluoromethyl)-1H-pyrazol-5-yl)-4,5,6,7,8,9-hexahydro-2H-5,9-epiminocycloocta[c]pyrazol-10-yl)(m-tolyl)methanone]", "values": [
      {"measurement": "IC50", "value": 68, "unit": "nM"}
    ]},
    {"compound": "Cc1ccc2c(C(=O)N3CCc4c(nn(C)c4-c4cc(C(F)(F)F)nn4C)[C@@H]3C)cccc2n1", "note": "[Example 1, (S)-(2,7-Dimethyl-3-(1-methyl-3-(trifluoromethyl)-1H-pyrazol-5-yl)-2,4,5,7-tetrahydro-6H-pyrazolo[3,4-c]pyridin-6-yl)(2-methylquinolin-5-yl)methanone]", "values": [
      {"measurement": "IC50", "value": 35, "unit": "nM"}
    ]},
    {"compound": "COc1nn(C)cc1-c1c2c(nn1C)[C@H](C)N(C(=O)c1ccc3ncccc3c1)CC2", "note": "[Example 16, (S)-(3-(3-Methoxy-1-methyl-1H-pyrazol-4-yl)-2,7-dimethyl-2,4,5,7-tetrahydro-6H-pyrazolo[3,4-c]pyridin-6-yl)(quinolin-6-yl)methanone]", "values": [
      {"measurement": "IC50", "value": 370, "unit": "nM"}
    ]},
    {"compound": "COc1cccc(C(=O)N2CCc3c(nn(C)c3-c3cc(C(F)(F)F)n(C)n3)[C@@H]2C)c1Cl", "note": "[Example 48, (S)-(2-Chloro-3-methoxyphenyl)(2,7-dimethyl-3-(1-methyl-5-(trifluoromethyl)-1H-pyrazol-3-yl)-2,4,5,7-tetrahydro-6H-pyrazolo[3,4-c]pyridin-6-yl)methanone]", "values": [
      {"measurement": "IC50", "value": 19, "unit": "nM"}
    ]},
    {"compound": "Cn1nc(C(F)(F)F)cc1-c1c2c(nn1C)[C@@H]1CCC[C@H](C2)N1C(=O)c1nn(C)c2ccc(F)cc12", "note": "[Example 86, (5-Fluoro-1-methyl-1H-indazol-3-yl)((5R,9S)-2-methyl-3-(1-methyl-3-(trifluoromethyl)-1H-pyrazol-5-yl)-4,5,6,7,8,9-hexahydro-2H-5,9-epiminocycloocta[c]pyrazol-10-yl)methanone]", "values": [
      {"measurement": "IC50", "value": 18, "unit": "nM"}
    ]},
    {"compound": "C[C@H]1c2nn(C)c(-c3cc(C(F)(F)F)n(C)n3)c2CCN1C(=O)c1cnn2cccc(F)c12", "note": "[Example 19, (S)-(2,7-Dimethyl-3-(1-methyl-5-(trifluoromethyl)-1H-pyrazol-3-yl)-2,4,5,7-tetrahydro-6H-pyrazolo[3,4-c]pyridin-6-yl)(4-fluoropyrazolo[1,5-a]pyridin-3-yl)methanone]", "values": [
      {"measurement": "IC50", "value": 19, "unit": "nM"}
    ]},
    {"compound": "C[C@H]1c2nn(C)c(-c3cnn(C(F)(F)F)c3)c2CCN1C(=O)c1ccc2ncccc2c1", "note": "[Example 64, (S)-(2,7-Dimethyl-3-(1-(trifluoromethyl)-1H-pyrazol-4-yl)-2,4,5,7-tetrahydro-6H-pyrazolo[3,4-c]pyridin-6-yl)(quinolin-6-yl)methanone]", "values": [
      {"measurement": "IC50", "value": 79, "unit": "nM"}
    ]},
    {"compound": "Cc1cc(C(=O)N2CCc3c(nn(C)c3-c3cnn(C)c3C(F)(F)F)[C@@H]2C)c2cc(F)ccc2n1", "note": "[Example 34, (S)-(2,7-Dimethyl-3-(1-methyl-5-(trifluoromethyl)-1H-pyrazol-4-yl)-2,4,5,7-tetrahydro-6H-pyrazolo[3,4-c]pyridin-6-yl)(6-fluoro-2-methylquinolin-4-yl)methanone]", "values": [
      {"measurement": "IC50", "value": 2190, "unit": "nM"}
    ]},
    {"compound": "Cc1ccc2cc(C(=O)N3CCc4c(nn(C)c4-c4cc(C(F)(F)F)nn4C)[C@@H]3C)c(F)cc2n1", "note": "[Example 91, (S)-(2,7-Dimethyl-3-(1-methyl-3-(trifluoromethyl)-1H-pyrazol-5-yl)-2,4,5,7-tetrahydro-6H-pyrazolo[3,4-c]pyridin-6-yl)(7-fluoro-2-methylquinolin-6-yl)methanone]", "values": [
      {"measurement": "IC50", "value": 210, "unit": "nM"}
    ]},
    {"compound": "C[C@H]1c2nn(C)c(-c3cc(C(F)(F)F)nn3C)c2CCN1C(=O)c1c[nH]c2cccc(F)c12", "note": "[Example 5, (S)-(2,7-dimethyl-3-(1-methyl-3-(trifluoromethyl)-1H-pyrazol-5-yl)-2,4,5,7-tetrahydro-6H-pyrazolo[3,4-c]pyridin-6-yl)(4-fluoro-1H-indol-3-yl)methanone]", "values": [
      {"measurement": "IC50", "value": 37, "unit": "nM"}
    ]},
    {"compound": "COc1cccc(C(=O)N2CCc3c(nn(C)c3-c3cc(C(F)(F)F)nn3C)[C@@H]2C)c1C", "note": "[Example 36, (S)-(2,7-Dimethyl-3-(1-methyl-3-(trifluoromethyl)-1H-pyrazol-5-yl)-2,4,5,7-tetrahydro-6H-pyrazolo[3,4-c]pyridin-6-yl)(3-methoxy-2-methylphenyl)methanone]", "values": [
      {"measurement": "IC50", "value": 23, "unit": "nM"}
    ]},
    {"compound": "Cn1nc(C(F)(F)F)cc1-c1c2c(nn1C)[C@@H]1CCC[C@H](C2)N1C(=O)c1noc2ccccc12", "note": "[Example 84, Benzo[d]isoxazol-3-yl((5R,9S)-2-methyl-3-(1-methyl-3-(trifluoromethyl)-1H-pyrazol-5-yl)-4,5,6,7,8,9-hexahydro-2H-5,9-epiminocycloocta[c]pyrazol-10-yl)methanone]", "values": [
      {"measurement": "IC50", "value": 5.1, "unit": "nM"}
    ]}
  ]
}
